The record followed here is PubChem BioAssay AID330 (DTP/NCI, 2004).

“And” between values parts separate entries of the source, which are not always exact repeats. Equal entries are not always repeated. Toxic doses and inconclusive results are not listed.

This assay has as its system P388 leukemia ip, CD2F1 mice, survival T/C. The assay is described as follows: NCI In Vivo Anticancer Drug Screen. Data for tumor model P388 Leukemia (intraperitoneal) in CD2F1 (CDF1) mice. The settings on record: endpoint: median survival time, higher = longer survival. The method in brief: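 Mice carrying the transplanted tumor received test compound or vehicle. Survival was recorded in each group, and the value is the treated-group measurement divided by that of the vehicle-treated control group.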

[1] abbreviates: dose: 50.0 mg/kg/injection, schedule: Q01DX009 (ip), vehicle: saline with Tween-80.
Setting [2] is: dose: 25.0 mg/kg/injection, schedule: Q01DX005 (ip), vehicle: saline.
Where [3] appears, read: dose: 100.0 mg/kg/injection, schedule: Q01DX005 (ip), vehicle: saline.

For `C[C@@H]1O[C@H]2O[C@@H]3[C@@H](C)O[C@@H](c4ccc5c(c4O)C(=O)c4ccc(C[C@@](C)(O)CC(=O)O)c(O)c4C5=O)C[C@H]3O[C@H]2CC1=O`, the T/C reads like this: (dose: 23.5 mg/kg/injection, schedule: Q01DX005 (ip), vehicle: Klucel (hydroxypropylcellulose) (HPC)) 105 % of control; (dose: 47.0 mg/kg/injection, schedule: Q01DX005 (ip), vehicle: Klucel (hydroxypropylcellulose) (HPC)) 105 % of control; (dose: 94.0 mg/kg/injection, schedule: Q01DX005 (ip), vehicle: Klucel (hydroxypropylcellulose) (HPC)) 97 % of control.
Consider `N#Cc1c2c(c(O)[nH]c1=O)C(=O)c1ccccc1-2`, for which the T/C by setting is: (dose: 12.5 mg/kg/injection, schedule: Q01DX009 (ip), vehicle: saline with Tween-80) 115 % of control; (dose: 25.0 mg/kg/injection, schedule: Q01DX009 (ip), vehicle: saline with Tween-80) 104 % of control; under setting [1], 93 % of control.
With `CCCCCCCC(=O)NC1CC(O[C@H]2C[C@](O)(C(C)=O)Cc3c(O)c4c(c(O)c32)C(=O)c2c(OC)cccc2C4=O)OC(C)C1O` (stereo partly drawn), the T/C is, setting by setting: (dose: 0.75 mg/kg/injection, schedule: Q01DX009 (ip), vehicle: other) 113 % of control; (dose: 2.0 mg/kg/injection, schedule: Q04DX003 (ip), vehicle: other) 107 % of control; (dose: 4.0 mg/kg/injection, schedule: Q04DX003 (ip), vehicle: other) 98 % of control; (dose: 8.0 mg/kg/injection, schedule: Q04DX003 (ip), vehicle: other) 102 % of control; (dose: 16.0 mg/kg/injection, schedule: Q04DX003 (ip), vehicle: other) 105 % of control; (dose: 32.0 mg/kg/injection, schedule: Q04DX003 (ip), vehicle: other) 116 % of control and 96 % of control. Also, the T/C reads like this: (dose: 50.0 mg/kg/injection, schedule: Q04DX003 (ip), vehicle: other) 118 % of control; (dose: 64.0 mg/kg/injection, schedule: Q04DX003 (ip), vehicle: other) 114 % of control; (dose: 100.0 mg/kg/injection, schedule: Q04DX003 (ip), vehicle: other) 105 % of control; (dose: 128.0 mg/kg/injection, schedule: Q04DX003 (ip), vehicle: other) 123 % of control; (dose: 256.0 mg/kg/injection, schedule: Q04DX003 (ip), vehicle: other) 123 % of control; (dose: 400.0 mg/kg/injection, schedule: Q04DX003 (ip), vehicle: other) 115 % of control.
For the compound `[O-][N+](CCO)(CCO)c1ncnc2nc[nH]c12`, the T/C (dose: 50.0 mg/kg/injection, schedule: Q01DX005 (ip), vehicle: suspension in saline) is 102 % of control; the T/C (dose: 100.0 mg/kg/injection, schedule: Q01DX005 (ip), vehicle: suspension in saline) is 106 % of control; the T/C (dose: 200.0 mg/kg/injection, schedule: Q01DX005 (ip), vehicle: suspension in saline) is 102 % of control.
In the case of `CC(=O)NC1C=CC(=O)O1` (stereo not drawn), the T/C (dose: 2.1 mg/kg/injection, schedule: Q01DX010 (ip), vehicle: saline) is 104 % of control.
As to `OCC1OC(n2cnc3cncnc32)C(O)C1O` (stereo not drawn), the T/C was 111 % of control (dose: 6.25 mg/kg/injection, schedule: Q01DX001 (ip), vehicle: saline); 99 % of control (dose: 6.25 mg/kg/injection, schedule: Q04DX003 (ip), vehicle: saline); 111 % of control (dose: 12.5 mg/kg/injection, schedule: Q01DX001 (ip), vehicle: saline); 100 % of control (dose: 12.5 mg/kg/injection, schedule: Q04DX003 (ip), vehicle: saline); 114 % of control (dose: 25.0 mg/kg/injection, schedule: Q01DX001 (ip), vehicle: saline); 99 % of control (dose: 25.0 mg/kg/injection, schedule: Q04DX003 (ip), vehicle: saline). For the same compound, the T/C is 96 % of control and 97 % of control (dose: 50.0 mg/kg/injection, schedule: Q04DX003 (ip), vehicle: saline); 100 % of control (dose: 100.0 mg/kg/injection, schedule: Q04DX003 (ip), vehicle: saline); 104 % of control (dose: 200.0 mg/kg/injection, schedule: Q04DX003 (ip), vehicle: saline); 104 % of control (dose: 400.0 mg/kg/injection, schedule: Q04DX003 (ip), vehicle: saline).
For `CC[C@@]1(O)C(=O)OCc2c1cc1n(c2=O)Cc2cc3cc(OC)ccc3nc2-1`, the T/C by setting is: (dose: 1.57 mg/kg/injection, schedule: Q04DX003 (ip), vehicle: other) 165 % of control; (dose: 3.13 mg/kg/injection, schedule: Q04DX003 (ip), vehicle: other) 98 % of control.
For `Nc1ccc(NCC2CCCN3CCCCC23)c2c(=O)c3ccccc3sc12` (stereo not drawn), the T/C (dose: 13.25 mg/kg/injection, schedule: Q01DX005 (ip), vehicle: saline with Tween-80) was 104 % of control; the T/C (dose: 26.5 mg/kg/injection, schedule: Q01DX005 (ip), vehicle: saline with Tween-80) was 101 % of control; the T/C (dose: 53.0 mg/kg/injection, schedule: Q01DX005 (ip), vehicle: saline with Tween-80) was 103 % of control; the T/C (dose: 90.0 mg/kg/injection, schedule: Q01DX005 (ip), vehicle: saline with Tween-80) was 94 % of control; the T/C (dose: 106.0 mg/kg/injection, schedule: Q01DX005 (ip), vehicle: saline with Tween-80) was 100 % of control; the T/C (dose: 180.0 mg/kg/injection, schedule: Q01DX005 (ip), vehicle: saline with Tween-80) was 94 % of control. Besides, the T/C (dose: 360.0 mg/kg/injection, schedule: Q01DX005 (ip), vehicle: saline with Tween-80) is 95 % of control.
With `COC1=NCc2ccccc2C2(OC)C(C)(C)C12C#N` (stereo not drawn), the T/C was 96 % of control (dose: 50.0 mg/kg/injection, schedule: Q01DX005 (ip), vehicle: saline with Tween-80); 99 % of control (dose: 100.0 mg/kg/injection, schedule: Q01DX005 (ip), vehicle: saline with Tween-80); 101 % of control (dose: 200.0 mg/kg/injection, schedule: Q01DX005 (ip), vehicle: saline with Tween-80).
On to `N#Cc1cccn1OCN1C(=O)c2ccccc2C1=O`, for which the T/C was 100 % of control (dose: 25.0 mg/kg/injection, schedule: Q04DX003 (ip), vehicle: Klucel (hydroxypropylcellulose) (HPC)); 103 % of control (dose: 50.0 mg/kg/injection, schedule: Q04DX003 (ip), vehicle: Klucel (hydroxypropylcellulose) (HPC)); 100 % of control and 92 % of control (dose: 100.0 mg/kg/injection, schedule: Q04DX003 (ip), vehicle: Klucel (hydroxypropylcellulose) (HPC)); 87 % of control (dose: 400.0 mg/kg/injection, schedule: Q04DX003 (ip), vehicle: Klucel (hydroxypropylcellulose) (HPC)).
On to `CC(S)c1ccccc1` (stereo not drawn), for which the T/C under setting [1] is 115 % of control; the T/C (dose: 100.0 mg/kg/injection, schedule: Q01DX009 (ip), vehicle: saline with Tween-80) is 113 % of control; the T/C (dose: 200.0 mg/kg/injection, schedule: Q01DX009 (ip), vehicle: saline with Tween-80) is 115 % of control.
As for `C[CH2][Sn]([CH2]C)([CH2]CC(=O)OC)[CH2]CC(=O)OC`, the T/C reads like this: (dose: 12.5 mg/kg/injection, schedule: Q01DX005 (ip), vehicle: saline) 113 % of control; under setting [2], 120 % of control; under setting [3], 119 % of control.
Regarding `Cl/N=C1/C=CC(Cl)=C/C1=N/Cl`, the T/C by setting is: under setting [2], 100 % of control and 101 % of control; (dose: 50.0 mg/kg/injection, schedule: Q01DX005 (ip), vehicle: saline) 101 % of control and 102 % of control and 115 % of control; under setting [3], 105 % of control and 106 % of control and 120 % of control; (dose: 200.0 mg/kg/injection, schedule: Q01DX005 (ip), vehicle: saline) 98 % of control and 101 % of control and 110 % of control.
Turning to `[O-]/[N+]1=[N+](\[O-])c2ccccc2COCc2ccccc21`, the T/C runs as follows: (dose: 60.0 mg/kg/injection, schedule: Q01DX005 (ip), vehicle: saline with Tween-80) 96 % of control; (dose: 120.0 mg/kg/injection, schedule: Q01DX005 (ip), vehicle: saline with Tween-80) 93 % of control; (dose: 240.0 mg/kg/injection, schedule: Q01DX005 (ip), vehicle: saline with Tween-80) 89 % of control.
Regarding `CN(Cc1cnc2nc(N)nc(N)c2n1)c1ccc(C(=O)NC(CCC(=O)OCc2c(Cl)cccc2Cl)C(=O)OCc2c(Cl)cccc2Cl)cc1` (stereo not drawn), the T/C is 168 % of control (dose: 3.75 mg/kg/injection, schedule: Q01DX005 (ip), vehicle: saline with Tween-80); 207 % of control and 237 % of control (dose: 7.5 mg/kg/injection, schedule: Q01DX005 (ip), vehicle: saline with Tween-80); 105 % of control and 92 % of control (dose: 15.0 mg/kg/injection, schedule: Q01DX005 (ip), vehicle: saline with Tween-80); 87 % of control (dose: 30.0 mg/kg/injection, schedule: Q01DX005 (ip), vehicle: saline with Tween-80).
For `CCCCCCCCCOCC(O)CCl` (stereo not drawn), the T/C is 97 % of control (dose: 50.0 mg/kg/injection, schedule: Q01DX009 (ip), vehicle: Klucel (hydroxypropylcellulose) (HPC)); 98 % of control (dose: 100.0 mg/kg/injection, schedule: Q01DX009 (ip), vehicle: Klucel (hydroxypropylcellulose) (HPC)); 93 % of control (dose: 200.0 mg/kg/injection, schedule: Q01DX009 (ip), vehicle: Klucel (hydroxypropylcellulose) (HPC)).
